The values below come from patent publication US20140296212A1, “SUBSTITUTED PHENOXYPROPYLCYCLOAMINE DERIVATIVES AS HISTAMINE-3 (H3) RECEPTOR LIGANDS” (CEPHALON, INC., priority 2009, published 2014).

The target of one series is T1, human H3 receptor (Homo sapiens, UniProt Q9Y5N1).
T1 construct: expressed in transfected cells
As to the kind of experiment: Human H3 radioligand binding ([3H]-N-alpha-methylhistamine, SPA). The note with it: membranes of CHO cells expressing human H3. The procedure: Cell pellets were resuspended in 5 mM Tris-HCl, pH 7.5 with 5 nM EDTA and a cocktail of protease inhibitors (Complete Protease Inhibitor Tablets, Roche Diagnostics). Cells were disrupted using a polytron cell homogenizer and the suspension was centrifuged at 1000×g for 10 minutes at 4° C. The pellet was discarded and the supernatant centrifuged at 40,000×g for 30 min at 4° C. This membrane pellet was washed in membrane buffer containing 50 mM Tris-HCl, pH 7.5 with 0.6 mM EDTA, 5 mM MgCl2 and protease inhibitors, recentrifuged as above and the final pellet resuspended in membrane buffer plus 250 mM sucrose and frozen at −80° C.
(§1) Membranes were resuspended in 50 mM Tris HCl (pH 7.4), 5 mM MgCl2, 0.1% BSA. The membrane suspensions (10 μg protein per well) were incubated in a 96 well microtiter plate with [^3H]-N-alpha-methylhistamine (approximately 1 nM final concentration), test compounds at various concentrations (0.01 nM-30 μM) and scintillation proximity beads (Perkin Elmer, FlashBlueGPCR Scintillating Beads) in a final volume of 80 μl for 4 hours at room temperature, protected from light. Non-specific binding was determined in the presence of 10 μM clobenpropit. Radioligand bound to receptor, and therefore in proximity to the scintillation beads, was measured using a MicroBeta scintillation counter.

In series [1] the target is T2, rat histamine H3 receptor (Rattus norvegicus, UniProt Q9QYN8).
T2 construct: encoding the entire 445-amino-acid rat histamine H3 receptor; expressed in transfected cells
As to the kind of experiment: Rat H3 radioligand binding ([3H]-N-alpha-methylhistamine, SPA). To be noted: membranes of CHO-A3 cells expressing rat H3; [3H]-N-alpha-methylhistamine; read-out: Rat H3 Ki.
From the text: The rat H3 receptor cDNA was PCR amplified from reverse-transcribed RNA pooled from rat thalamus, hypothalamus, striatum and prefrontal cortex with a sequence corresponding to by #338-1672 of Genbank file #NM_053506, encoding the entire 445-amino-acid rat histamine H3 receptor. This was engineered into the pIRES-neo3 mammalian expression vector, which was stably transfected into the CHO-A3 cell line (Euroscreen, Belgium), followed by clonal selection by limiting dilution. Cells were harvested and cell pellets were frozen (−80° C.). Cell pellets were resuspended in 5 mM Tris-HCl, pH 7.5 with 5 nM EDTA and a cocktail of protease inhibitors (Complete Protease Inhibitor Tablets, Roche Diagnostics). Cells were disrupted using a polytron cell homogenizer and the suspension was centrifuged at 1000×g for 10 minutes at 4° C. The pellet was discarded and the supernatant centrifuged at 40,000×g for 30 min at 4° C. This membrane pellet was washed in membrane buffer containing 50 mM Tris-HCl, pH 7.5 with 0.6 mM EDTA, 5 mM MgCl2 and protease inhibitors, recentrifuged as above and the final pellet resuspended in membrane buffer plus 250 mM sucrose and frozen at −80° C.
as §1

A word on the Ki: it is a dissociation constant, usually derived from enzyme kinetics or from competition with a known ligand. The term melting point denotes the temperature, or range, at which the solid turns liquid.

Counter-ions that a name gives are not always drawn.

T1 sequence (Q9Y5N1 whole entry): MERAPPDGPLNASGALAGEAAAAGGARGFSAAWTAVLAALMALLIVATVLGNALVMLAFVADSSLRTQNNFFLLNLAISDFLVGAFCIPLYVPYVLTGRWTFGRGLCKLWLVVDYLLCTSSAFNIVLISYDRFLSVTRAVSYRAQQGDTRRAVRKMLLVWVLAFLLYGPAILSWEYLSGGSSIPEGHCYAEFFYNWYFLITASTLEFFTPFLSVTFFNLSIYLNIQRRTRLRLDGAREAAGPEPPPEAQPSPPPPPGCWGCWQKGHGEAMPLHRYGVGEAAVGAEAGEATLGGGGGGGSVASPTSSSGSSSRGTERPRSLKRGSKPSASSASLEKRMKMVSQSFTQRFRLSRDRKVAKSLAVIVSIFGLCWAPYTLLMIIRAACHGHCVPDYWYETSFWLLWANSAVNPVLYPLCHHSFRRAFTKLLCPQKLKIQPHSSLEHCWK
T2 sequence (Q9QYN8 whole entry): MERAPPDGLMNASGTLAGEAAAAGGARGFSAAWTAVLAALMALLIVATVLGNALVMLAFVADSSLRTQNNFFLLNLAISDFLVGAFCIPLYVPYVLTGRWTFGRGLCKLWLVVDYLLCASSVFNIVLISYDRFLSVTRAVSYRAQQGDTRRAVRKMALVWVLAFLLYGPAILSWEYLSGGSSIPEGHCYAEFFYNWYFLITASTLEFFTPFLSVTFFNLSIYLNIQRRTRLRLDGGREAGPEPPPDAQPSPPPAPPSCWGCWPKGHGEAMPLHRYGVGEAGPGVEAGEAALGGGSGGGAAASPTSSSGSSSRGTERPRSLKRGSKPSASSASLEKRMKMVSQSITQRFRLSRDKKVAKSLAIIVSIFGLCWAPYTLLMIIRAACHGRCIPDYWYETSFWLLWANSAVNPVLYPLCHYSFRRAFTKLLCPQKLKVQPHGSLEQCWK

In the case of `CC(C(=O)c1ccc(OCCCN2CCOCC2)cc1)N1CCOCC1` (stereo not shown) [Example 48, 2-Morpholin-4-yl-1-[4-(3-morpholin-4-yl-propoxy)-phenyl]-propan-1-one], the melting point came to 258 °C. The compound also yielded a Ki on human H3 receptor above 1000 nM. `CC(C(=O)c1ccc(OCCCN2CCC[C@@H]2C)cc1)N1CCCCC1` (stereo partly drawn) [Example 20, 1-{4-[3-((S)-2-Methyl-pyrrolidin-1-yl)-propoxy]-phenyl}-2-piperidin-1-yl-propan-1-one]: the melting point is above 230 °C. The same compound gave an inhibition constant Ki on human H3 receptor of 0.1 to 100 nM. `CC(C)OC(=O)N1CCN(CC(=O)c2ccc(OCCCN3CCC[C@H]3C)cc2)CC1` [Example 158, 4-(2-{4-[3-((R)-2-Methyl-pyrrolidin-1-yl)-propoxy]-phenyl}-2-oxo-ethyl)-piperazine-1-carboxylic acid isopropyl ester]: the melting point lay within 222 to 224 °C. The compound `CC(C(=O)c1ccc(OCCCN2CCC(F)(F)C2)cc1)N1CCOCC1` (stereo not shown) [Example 56, 1-{4-[3-(3,3-Difluoro-pyrrolidin-1-yl)-propoxy]-phenyl}-2-morpholin-4-yl-propan-1-one] yielded a melting point of 254 °C. The compound also displayed a Ki at human H3 receptor above 1000 nM. As to `C[C@@H]1CCCN1CCCOc1ccc(C(=O)C(C)(C)N2CCOCC2)cc1` [Example 54], the Ki (on human H3 receptor; in series [1]) was 0.1 to 100 nM throughout.

`O=C(CN1CCOCC1)c1ccc(OCCCN2Cc3ccccc3C2)cc1` [Example 46, 1-{4-[3-(1,3-Dihydro-isoindol-2-yl)-propoxy)-phenyl}-2-morpholin-4-yl-ethanone] returned a melting point of 139 to 139.5 °C. Further, the Ki on human H3 receptor was above 1000 nM. As to `C[C@@H]1CCCN1CCCOc1ccc(/C(CN2CCOC(c3ccccc3)C2)=N/OC(C)(C)C)cc1` (stereo partly shown) [Example 168], the figures for the Ki (on human H3 receptor; in series [1]) were 0.1 to 100 nM and 101 to 500 nM, respectively. On the same counts, the results for `C[C@@H]1CCCN1CCCOc1ccc(C(=O)CN2CCC(F)(F)C2)cc1` [Example 60, 2-(3,3-Difluoro-pyrrolidin-1-yl)-1-{4-[3-((R)-2-methyl-pyrrolidin-1-yl)-propoxy]-phenyl}-ethanone] are 0.1 to 100 nM and 0.1 to 100 nM. For the compound `C[C@@H]1CCCN1CCCOc1ccc(C(=O)CN2CCOC(c3ccccc3)C2)cc1` (stereo partly drawn) [Example 29, 1-{4-[3-((R)-2-Methyl-pyrrolidin-1-yl)-propoxy]-phenyl}-2-(2-phenyl-morpholin-4-yl)-ethanone], the Ki (on human H3 receptor; in series [1]) was 0.1 to 100 nM throughout. On to `C[C@@H]1CCCN1CCCOc1ccc(C(=O)CN2CCCC(F)(F)C2)cc1` [Example 52, 2-(3,3-Difluoro-piperidin-1-yl)-1-{4-[3-((R)-2-methyl-pyrrolidin-1-yl)-propoxy]-phenyl}-ethanone], for which the Ki (at human H3 receptor; in series [1]) was 0.1 to 100 nM throughout.

With `COc1cc(C(=O)CN2CCN(C(=O)c3ccccc3)CC2)ccc1OCCCN1CCC[C@H]1C` [Example 112, 2-(4-Benzoyl-piperazin-1-yl)-1-{3-methoxy-4-[3-((R)-2-methyl-pyrrolidin-1-yl)-propoxy]-phenyl}-ethanone], the Ki at human H3 receptor was 101 to 500 nM; in series [1], above 1000 nM. On the same counts, the results for `C[C@@H]1CCCN1CCCOc1ccc(C(=O)CN2CCN(C(=O)c3cccc4ccccc34)CC2)cc1` [Example 133, 1-{4-[3-((R)-2-Methyl-pyrrolidin-1-yl)-propoxy]-phenyl}-2-[4-(naphthalene-1-carbonyl)-piperazin-1-yl]-ethanone] are 0.1 to 100 nM and 0.1 to 100 nM. On the same counts, the results for `COC(=O)N1CCN(CC(=O)c2ccc(OCCCN3CCC[C@H]3C)c(C)c2)CC1` [Example 137, 4-(2-{3-Methyl-4-[3-((R)-2-methyl-pyrrolidin-1-yl)-propoxy]-phenyl}-2-oxo-ethyl)-piperazine-1-carboxylic acid methyl ester] are 0.1 to 100 nM and 0.1 to 100 nM. The compound `CC(=O)N1CCN(CCCOc2ccc(C(=O)CN3CCOCC3)cc2)CC1` [Example 49, 1-{4-[3-(4-Acetyl-piperazin-1-yl)-propoxy]-phenyl}-2-morpholin-4-yl-ethanone] came in with a melting point of 247 °C. This compound also displayed a Ki at human H3 receptor above 1000 nM. Consider `C[C@@H]1CCCN1CCCOc1ccc(C(=O)CN2CCC(C(F)(F)F)CC2)cc1` [Example 47, 1-{4-[3-((R)-2-Methyl-pyrrolidin-1-yl)-propoxy]-phenyl}-2-(4-trifluoromethyl-piperidin-1-yl)-ethanone], for which the Ki (at human H3 receptor; in series [1]) was 0.1 to 100 nM in each case. As for `Cc1cc(C)cc(C(=O)N2CCN(CC(=O)c3ccc(OCCCN4CCC[C@H]4C)cc3)CC2)c1` [Example 140, 2-[4-(3,5-Dimethyl-benzoyl)-piperazin-1-yl]-1-{4-[3-((R)-2-methyl-pyrrolidin-1-yl)-propoxy]-phenyl}-ethanone], the inhibitory constant (Ki) (at human H3 receptor; in series [1]) was 0.1 to 100 nM in each case. Consider `C[C@@H]1CCCN1CCCOc1ccc(C(=O)CN2CCN(C(=O)C(F)(F)F)CC2)cc1` [Example 64], for which the Ki (on human H3 receptor; in series [1]) was 0.1 to 100 nM in each case. `CC(C)COC(=O)N1CCN(CC(=O)c2ccc(OCCCN3CCC[C@H]3C)cc2)CC1` [Example 131, 4-(2-{4-[3-((R)-2-Methyl-pyrrolidin-1-yl)-propoxy]-phenyl}-2-oxo-ethyl)-piperazine-1-carboxylic acid isobutyl ester]: the Ki (on human H3 receptor; in series [1]) was 0.1 to 100 nM in each case. As to `CC(C)N1CCC(Oc2ccc(C(=O)CN3CCOCC3)cc2)CC1` [Example 45, 1-[4-(1-Isopropyl-piperidin-4-yloxy)-phenyl]-2-morpholin-4-yl-ethanone], the Ki on human H3 receptor fell in the range of 0.1 to 100 nM; in series [1], 101 to 500 nM. `C[C@@H]1CCCN1CCCOc1ccc(C(=O)C(C)(C)N2CCOCC2)cc1` (as salt: fumaric acid salt) [Example 54]: the melting point lay within 45 to 50 °C. Turning to `C[C@@H]1CCCN1CCCOc1ccc(C(=O)CN2CCN(C(=O)c3ccccc3)CC2)cc1` [Example 68, 2-(4-Benzoyl-piperazin-1-yl)-1-{4-[3-((R)-2-methyl-pyrrolidin-1-yl)-propoxy]-phenyl}-ethanone], the Ki (at human H3 receptor; in series [1]) was 0.1 to 100 nM each time. In the case of `C[C@@H]1CCCN1CCCOc1ccc(C(=O)CN2CCO[C@@H](c3ccccc3)C2)cc1` [Example 39, 1-{4-[3-((R)-2-Methyl-pyrrolidin-1-yl)-propoxy]-phenyl}-2-((S)-2-phenyl-morpholin-4-yl)-ethanone], the Ki (on human H3 receptor; in series [1]) was 0.1 to 100 nM throughout. The compound `C[C@@H]1CCCN1CCCOc1ccc(C(=O)CN2CCN(C(=O)c3ccccc3)CC2)c(F)c1` (as salt: fumaric acid salt) [Example 103, 2-(4-Benzoyl-piperazin-1-yl)-1-{2-fluoro-4-[3-((R)-2-methyl-pyrrolidin-1-yl)-propoxy]-phenyl}-ethanone] yielded a melting point of 98 to 101 °C. Turning to `Cc1cc(OCCCN2CCC[C@H]2C)ccc1C(=O)CN1CCOCC1` [Example 74, 1-{2-Methyl-4-[3-((R)-2-methyl-pyrrolidin-1-yl)-propoxy]-phenyl}-2-morpholin-4-yl-ethanone], the Ki at human H3 receptor is 0.1 to 100 nM; in series [1], 101 to 500 nM. For the compound `C[C@@H]1CCCN1CCCOc1ccc(C(=O)CN2CCN(C(=O)c3ccccc3)CC2)c(F)c1` [Example 103, 2-(4-Benzoyl-piperazin-1-yl)-1-{2-fluoro-4-[3-((R)-2-methyl-pyrrolidin-1-yl)-propoxy]-phenyl}-ethanone], the Ki (on human H3 receptor; in series [1]) was 0.1 to 100 nM in each case. For `Cc1cc(C(=O)CN2CCC(F)(F)CC2)ccc1OCCCN1CCC[C@H]1C` [Example 136, 2-(4,4-Difluoro-piperidin-1-yl)-1-{3-methyl-4-[3-((R)-2-methyl-pyrrolidin-1-yl)-propoxy]-phenyl}-ethanone], the Ki at human H3 receptor lay within 0.1 to 100 nM; in series [1] it was 101 to 500 nM. As for `Cc1cc(C(=O)CN2CCN(C(=O)c3ccccc3)CC2)ccc1OCCCN1CCC[C@H]1C` [Example 107, 2-(4-Benzoyl-piperazin-1-yl)-1-{3-methyl-4-[3-((R)-2-methyl-pyrrolidin-1-yl)-propoxy]-phenyl}-ethanone], the Ki (at human H3 receptor; in series [1]) was 0.1 to 100 nM throughout. As to `CC(C)N1CCC(Oc2ccc(C(=O)CN3CCOCC3)cc2)CC1` (as salt: hydrochloride) [Example 45, 1-[4-(1-Isopropyl-piperidin-4-yloxy)-phenyl]-2-morpholin-4-yl-ethanone], the melting point was in the range of 296 to 298 °C.
